The source of these data is patent US10981932B2, “Macrocyclic indole derivatives” (Bayer Aktiengesellschaft, priority 2016, dated 2021).

Where two headings read alike, the source gives them in different places.

By EC50 is commonly meant the concentration that produces a half-maximal response. Low values mean a more potent agent, high ones a less potent agent.

One series concerns MV-4-11. In words: Anti-proliferative effect (CellTiter-Glo, 72 h), MV-4-11. It counts as cell-based. The note with it: MV-4-11 cells, median, read-out: IC50 antiproliferation assay MV-4-11 [M] (median). The method, then: Assessment of the Anti-Proliferative Effect of Compounds in Different Cell Lines
The impact of compounds on the proliferation of different cell lines was assessed using the CellTiter-Glo® Luminescent Cell Viability reagent from Promega (G7573). Of note, SUDHL10 and SUDHL5 (DLBCL), NCI-H929 (Multiple Myeloma), A2780 (ovarian carcinoma) as well as MV-4-11(AML) cells are sensitive to MCL-1 inhibition.
In parallel, cells were plated in a reference (day 0) plate for time zero determination.
Rim wells were excluded. The cells were incubated for 72 h hours in a humidified incubator at 37° C. The day 0 plate was measured by adding 30 μl/well of CTG solution (CellTiter-Glo® Luminescent Cell Viability reagent, Promega G7573) to time zero wells in the reference plate followed by a 10 minutes incubation and luminescence reading at 0.1 ms, using the PHERAstar FS microplate reader (BMG Labtech).
After 72 h incubation, the treated plates were measured in the same way as the day 0 plate mentioned above.
A general note: In ATP-based viability assays light output follows the ATP content of the culture.

The target in the next series is MCL-1 (Homo sapiens, UniProt Q07820). Description: Protein-protein interaction assay MCL-1/Noxa BH3 peptide (MCL-1 assay), TR-FRET. It counts as binding. Conditions: MBP-MCL-1 / Noxa BH3-derived peptide, median. The gist of the method:
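Steady-state competition, MCL-1/Noxa BH3, TR-FRET readout; 1 nM MBP-MCL-1, 11-point dose series 0.1 nM–20 μM; overnight 4 °C equilibration; 4-parameter IC50.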
A general note: Time-resolved FRET reads energy transfer from a long-lived donor to a nearby acceptor.

In series [1] the test system is SUDHL10. In words: Induction of cytotoxicity (CellTiter-Glo, 5 h), SUDHL10. Conditions: read-out: Cytotox SUDHL10 [M] (median), SUDHL10 cells, cytotoxicity induction, CellTiter-Glo, median.
In series [2] the test system is SUDHL5. Description: Anti-proliferative effect (CellTiter-Glo, 72 h), SUDHL5. It is filed as cell-based. The note with it: SUDHL5 cells, antiproliferation, 72 h incubation, median, read-out: Antiproli SUDHL5 [M] (median). An outline of the steps:
(§1)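 Plate cells alongside a separate day 0 reference plate. Read the reference plate at once with CellTiter-Glo. Incubate treated cells 72 h at 37 °C, then read them the same way by luminescence.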

In series [3] the test system is SUDHL5. In words: Induction of caspase-3/7 activity (Caspase-Glo 3/7), SUDHL5. It counts as cell-based. Conditions: caspase-3/7 induction, SUDHL5 cells, 3 h treatment; median. An outline of the steps:
(§2)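 A 3 h, 37 °C compound incubation precedes the Caspase-Glo 3/7 read. After subtracting medium-only signal, EC50s are fitted against the reference compound's maximal caspase induction.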

Series [4] concerns SUDHL10. Description: Induction of caspase-3/7 activity (Caspase-Glo 3/7), SUDHL10. It is filed as cell-based. Conditions: caspase-3/7 induction, SUDHL10 cells, 3 h treatment; median. An outline of the steps:
as §2

In series [5] the test system is SUDHL5. In words: Induction of cytotoxicity (CellTiter-Glo, 5 h), SUDHL5. Conditions: read-out: Cytotox SUDHL5 [M] (median), SUDHL5 cells, cytotoxicity induction, CellTiter-Glo, median.
A further series deals with A2780. In words: Anti-proliferative effect (CellTiter-Glo, 72 h), A2780. It counts as cell-based. Conditions: A2780 cells, median, read-out: IC50 antiproliferation assay A2780 [M] (median). The gist of the method: as §1

Sequence of MCL-1 (Q07820 whole entry): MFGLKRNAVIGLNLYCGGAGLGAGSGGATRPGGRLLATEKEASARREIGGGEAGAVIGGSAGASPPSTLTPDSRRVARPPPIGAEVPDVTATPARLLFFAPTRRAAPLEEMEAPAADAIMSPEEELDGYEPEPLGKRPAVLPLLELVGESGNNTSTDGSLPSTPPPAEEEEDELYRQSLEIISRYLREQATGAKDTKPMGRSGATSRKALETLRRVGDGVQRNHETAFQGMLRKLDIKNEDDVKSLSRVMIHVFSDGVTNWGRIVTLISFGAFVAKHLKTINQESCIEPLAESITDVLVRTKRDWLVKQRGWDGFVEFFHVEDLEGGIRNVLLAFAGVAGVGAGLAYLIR

Consider `CCc1nn(C)c2c1-c1c(C)ccc3c(C(C)CCOc4cccc5cc(F)ccc45)c(C(=O)O)n(c13)CCCCOC2` (single isomer, unassigned) [Example 265, 3-ethyl-7-{4-[(6-fluoronaphthalen-1-yl)oxy]butan-2-yl}-1,4-dimethyl-1,10,11,12,13,15-hexahydropyrazolo[4′,3′:9,10][1,6]oxazacycloundecino[8,7,6-hi]indole-8-carboxylic Acid], for which the IC50 with MV-4-11 (Homo sapiens, MV4-11, 72 h) was 2.75e-06 M; at MCL-1, 0.00585 µM; in the series on SUDHL10 [1] (5 h incubation), 7.35e-06 M; with SUDHL5 [2], 2.58e-06 M; in the series with SUDHL5 [5] (5 h incubation), 2.09e-06 M. Further, the EC50 in the series on SUDHL5 [3] amounted to 2.71 µM; with SUDHL10 [4] it was 10.1 µM.
Turning to `CN1CCCn2c(C(=O)O)c(CCCOc3cccc4ccccc34)c3cccc(c32)-c2c(nn(C)c2COc2ccc(N3CCN(S(=O)(=O)N(C)C)CC3)cc2)C1` (single isomer, unassigned; enantiomer 1) [Example 1-112, 11-({4-[4-(Dimethylsulfamoyl)piperazin-1-yl)phenoxy]methyl}-7,10-dimethyl-1-[3-(1-naphthyloxy)propyl]-4,5,6,7,8,10-hexahydropyrazolo[3′,4′:7,8][1,5]diazecino[9,10,1-hi]indole-2-carboxylic Acid (Enantiomer 1)], the IC50 with MV-4-11 stood at 2.69e-06 M; against MCL-1, 0.012 µM; in the series on SUDHL10 [1] (5 h incubation), 5.46e-06 M; with SUDHL5 [2], 2.72e-06 M; in the series on SUDHL5 [5] (5 h incubation) it was 3.3e-06 M. In addition, the EC50 with SUDHL5 [3] came to 2.32 µM; in the series with SUDHL10 [4] it was 3.34 µM.
Consider `CN1CCCn2c(C(=O)O)c(CCCOc3cccc4ccccc34)c3cccc(c32)-c2c(nn(C)c2COc2ccc(N3CCN(S(=O)(=O)N(C)C)CC3)cc2)C1` (single isomer, unassigned; enantiomer 2) [Example 1-113, 11-({4-[4-(Dimethylsulfamoyl)piperazin-1-yl]phenoxy}methyl)-7,10-dimethyl-1-[3-(1-naphthyloxy)propyl]-4,5,6,7,8,10-hexahydropyrazolo[3′,4′:7,8][1,5]diazecino[9,10,1-hi]indole-2-carboxylic Acid (Enantiomer 2)], for which the IC50 with MV-4-11 was found to be 1.2e-05 M; against MCL-1, 0.0277 µM; with SUDHL10 [1] (5 h incubation) it was 2.06e-05 M; in the series on SUDHL5 [2] it was 1.05e-05 M; in the series with SUDHL5 [5] (5 h incubation), 1.31e-05 M. In addition, the EC50 in the series with SUDHL5 [3] worked out at 10.5 µM; in the series on SUDHL10 [4], 9.08 µM.
Turning to `CCc1nn(C)c2c1-c1cccc3c(CCCOc4cccc5cc(C(F)(F)F)ccc45)c(C(=O)O)n(c13)CCCCOC2` (single isomer, unassigned; enantiomer 2) [Example 315, 3-ethyl-1-methyl-7-(3-{[6-(trifluoromethyl)naphthalen-1-yl]oxy}propyl)-1,10,11,12,13,15-hexahydropyrazolo[4′,3′:9,10][1,6]oxazacycloundecino[8,7,6-hi]indole-8-carboxylic Acid (Enantiomer 2)], the IC50 in the series with MV-4-11 was found to be 1.16e-05 M; against MCL-1, 0.919 µM; in the series on SUDHL10 [1] (5 h) it was 1.58e-05 M; in the series with A2780 it was 8.63e-06 M; with SUDHL5 [5] (5 h), 1.48e-05 M. Also, the figures for the EC50 in the series on SUDHL5 [3] and in the series on SUDHL10 [4] were above 33 µM and 20.1 µM, respectively.
